We go through 23 compounds from patent US7863449B2, “Modulators of muscarinic receptors” (Vertex Pharmaceuticals Incorporated, priority 2004, dated 2011).

Each structure is given as a SMILES string. Where a name gives a salt, the structure may show the parent alone.

In one experiment the target is T1, M1 muscarinic receptor (Homo sapiens, UniProt P11229).
T1 construct: expressed in transfected cells; host or cells: CHO (M1-CHO)
T1 sequence (P11229 1-460): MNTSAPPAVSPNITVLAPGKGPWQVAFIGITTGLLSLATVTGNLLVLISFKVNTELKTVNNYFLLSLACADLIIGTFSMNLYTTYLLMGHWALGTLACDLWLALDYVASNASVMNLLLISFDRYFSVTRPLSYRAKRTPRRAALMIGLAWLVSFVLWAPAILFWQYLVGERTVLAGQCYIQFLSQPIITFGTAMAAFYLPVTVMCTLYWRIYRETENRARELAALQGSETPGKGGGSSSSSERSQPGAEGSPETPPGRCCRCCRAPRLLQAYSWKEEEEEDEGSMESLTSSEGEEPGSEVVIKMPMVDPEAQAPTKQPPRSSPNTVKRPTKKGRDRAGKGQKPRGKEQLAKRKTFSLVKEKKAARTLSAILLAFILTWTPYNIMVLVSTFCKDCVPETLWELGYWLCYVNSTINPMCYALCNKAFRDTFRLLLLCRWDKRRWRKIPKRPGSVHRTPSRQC
Briefly: Functional mobilization of intracellular calcium (FLIPR), M1-CHO cells. It is filed as cell-based. Conditions: for Emax: 100% efficacy is the maximum response obtained using Carbachol as a control; for M1 Activity: M1-CHO cells, FLIPR calcium mobilization. The gist of the method:
(§1)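 Calcium flux recorded 60 s (ex 488, em 540 nm) in dye-loaded M1- or M4-CHO cells in pH 7.4 buffer with 1 mM probenecid. Inhibition measured against carbachol EC80 after 15 min compound pre-incubation or co-addition; agonism measured by compound addition alone. Final DMSO 0.5%.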
For orientation: Calcium assays in cells follow changes in intracellular calcium, usually with a dye or a luminescent sensor.

A further experiment has as its target T2, M4 muscarinic receptor (Homo sapiens, UniProt P08173).
T2 construct: expressed in transfected cells; host or cells: CHO (M4-CHO)
T2 sequence (P08173 1-479): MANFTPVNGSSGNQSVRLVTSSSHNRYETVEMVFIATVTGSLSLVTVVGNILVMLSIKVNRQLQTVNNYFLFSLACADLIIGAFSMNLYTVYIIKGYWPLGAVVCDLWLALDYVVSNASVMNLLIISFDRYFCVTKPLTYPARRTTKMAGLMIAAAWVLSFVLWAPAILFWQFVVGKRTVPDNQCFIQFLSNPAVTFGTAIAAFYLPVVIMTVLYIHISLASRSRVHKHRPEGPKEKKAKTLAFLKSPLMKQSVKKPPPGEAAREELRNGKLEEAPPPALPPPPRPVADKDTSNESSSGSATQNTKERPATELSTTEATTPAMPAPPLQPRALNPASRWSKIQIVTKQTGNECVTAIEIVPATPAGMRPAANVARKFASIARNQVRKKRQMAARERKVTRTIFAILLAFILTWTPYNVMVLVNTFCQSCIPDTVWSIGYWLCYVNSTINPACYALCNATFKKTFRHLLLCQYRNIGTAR
Briefly: Functional mobilization of intracellular calcium (FLIPR), M4-CHO cells. It is filed as cell-based. Conditions: for Emax: 100% efficacy is the maximum response obtained using Carbachol as a control; for M4 Activity: M4-CHO cells, FLIPR calcium mobilization. Summed up: as §1

On to `CCCOC(=O)N1CCC(N2CCC3(CC2)CN(C(C)=O)Cc2ccccc23)CC1` [compound 129, Propyl 4-(2-acetyl-2,3-dihydro-1H-spiro[isoquinoline-4,4′-piperidine]-1′-yl)piperidine-1-carboxylate hydrochloride], for which, at M1 muscarinic receptor, the maximal response (Emax) lay within 25 to 100% and the “M1 Activity” value is reported as “+++ (activity was measured to be less than 1.0 μM)”. At M4 muscarinic receptor, the maximal effect (Emax) was 25 to 100% and the “M4 Activity” value was “+++ (activity was measured to be less than 1.0 μM)”.

Regarding `CC(C)(C)CCN1CCC2(CC1)c1ccccc1C(=O)N2Cc1ccccc1` [compound 130], on M1 muscarinic receptor, the Emax was in the range of 25 to 100% and the “M1 Activity” value is reported as “++ (activity was measured to be from 1.0 μM to 5.0 μM)”. Also, on M4 muscarinic receptor, the Emax is less than 25% and the “M4 Activity” value is reported as “+ (activity was measured to be greater than 5.0 μM)”.

In the case of `CN(C)S(=O)(=O)N1Cc2ccccc2C2(CCN(C3CC4CCC(C3)N4C(=O)OC3CCC3)CC2)C1` (centres unmarked) [compound 131], at M1 muscarinic receptor, the maximal effect (Emax) was in the range of 25 to 100% and the “M1 Activity” value is recorded as “+++ (activity was measured to be less than 1.0 μM)”. At M4 muscarinic receptor, the Emax was 25 to 100% and the “M4 Activity” value is given as “+++ (activity was measured to be less than 1.0 μM)”.

Consider `CCOC(=O)N1C2CCC1CC(N1CCC3(CC1)CN(C(=O)Nc1ccc(F)cc1)Cc1ccccc13)C2` (centres unmarked) [compound 132], for which, at M1 muscarinic receptor, the maximal response (Emax) was 25 to 100% and the “M1 Activity” value was “+++ (activity was measured to be less than 1.0 μM)”. At M4 muscarinic receptor, the Emax lay within 25 to 100% and the “M4 Activity” value is given as “+++ (activity was measured to be less than 1.0 μM)”.

As to `COC(=O)N1CCC(N2CCC3(CC2)CN(C(C)=O)Cc2ccccc23)CC1` [compound 133], on M1 muscarinic receptor, the maximal response (Emax) lay within 25 to 100% and the “M1 Activity” value is reported as “+++ (activity was measured to be less than 1.0 μM)”. Also, at M4 muscarinic receptor, the Emax lay in the range of 25 to 100% and the “M4 Activity” value was “+++ (activity was measured to be less than 1.0 μM)”.

Consider `O=C1NC2(CCN(CCC3CCSCC3)CC2)c2ccccc21` [compound 134], for which, on M1 muscarinic receptor, the Emax is less than 25% and the “M1 Activity” value is on record as “+ (activity was measured to be greater than 5.0 μM)”. Moreover, on M4 muscarinic receptor, the Emax was less than 25% and the “M4 Activity” value was “+ (activity was measured to be greater than 5.0 μM)”.

`CCOC(=O)N1C2CCC1CC(N1CCC3(CC1)CN(c1cccc(Cl)c1)Cc1ccccc13)C2` (centres unmarked) [compound 136]: at M1 muscarinic receptor, the maximum response (Emax) was more than 100% and the “M1 Activity” value is recorded as “+++ (activity was measured to be less than 1.0 μM)”. At M4 muscarinic receptor, the Emax lay in the range of 25 to 100% and the “M4 Activity” value was “+++ (activity was measured to be less than 1.0 μM)”.

Regarding `CCOc1ccc(CN2CCC3(CC2)CN(C(C)=O)Cc2ccccc23)cc1` [compound 137], on M1 muscarinic receptor, the maximal response (Emax) was less than 25% and the “M1 Activity” value is “+ (activity was measured to be greater than 5.0 μM)”. On M4 muscarinic receptor, the Emax is less than 25% and the “M4 Activity” value is listed as “+ (activity was measured to be greater than 5.0 μM)”.

Consider `COCCOC(=O)N1Cc2ccccc2C2(CCN(C3CC4CCC(C3)N4C(=O)O[C@@H]3CCOC3)CC2)C1` (some centres unmarked) [compound 138], for which, at M1 muscarinic receptor, the Emax was in the range of 25 to 100% and the “M1 Activity” value was “+++ (activity was measured to be less than 1.0 μM)”. Also, at M4 muscarinic receptor, the Emax was in the range of 25 to 100% and the “M4 Activity” value is listed as “+++ (activity was measured to be less than 1.0 μM)”.

Turning to `CC(=O)N1Cc2ccccc2C2(CCN(Cc3ccoc3)CC2)C1` [compound 139], at M1 muscarinic receptor, the Emax is less than 25% and the “M1 Activity” value was “+ (activity was measured to be greater than 5.0 μM)”. Also, at M4 muscarinic receptor, the Emax is less than 25% and the “M4 Activity” value was “+ (activity was measured to be greater than 5.0 μM)”.

On to `COC(=O)N1C2CCC1CC(N1CCC3(CC1)CN(C(C)=O)Cc1ccccc13)C2` (centres unmarked) [compound 140], for which, on M1 muscarinic receptor, the Emax was in the range of 25 to 100% and the “M1 Activity” value is “+++ (activity was measured to be less than 1.0 μM)”. Also, on M4 muscarinic receptor, the Emax lay within 25 to 100% and the “M4 Activity” value was “+++ (activity was measured to be less than 1.0 μM)”.

Regarding `CCOC(=O)N1C2CCC1CC(N1CCC3(CC1)CN(c1cccc(OC)c1)Cc1ccccc13)C2` (centres unmarked) [compound 141, ethyl 3-(2-(3-methoxyphenyl)-2,3-dihydro-1H-spiro[isoquinoline-4,4′-piperidine]-1′-yl)-8-azabicyclo[3.2.1]octane-8-carboxylate], at M1 muscarinic receptor, the Emax is 25 to 100% and the “M1 Activity” value is reported as “+++ (activity was measured to be less than 1.0 μM)”. Besides, on M4 muscarinic receptor, the maximal response (Emax) was in the range of 25 to 100% and the “M4 Activity” value is listed as “+++ (activity was measured to be less than 1.0 μM)”.

As to `CC(=O)N1Cc2ccccc2C2(CCN(Cc3sccc3C)CC2)C1` [compound 142], on M1 muscarinic receptor, the Emax was less than 25% and the “M1 Activity” value is recorded as “+ (activity was measured to be greater than 5.0 μM)”. Further, on M4 muscarinic receptor, the Emax is less than 25% and the “M4 Activity” value was “+ (activity was measured to be greater than 5.0 μM)”.

For the compound `CCOC(=O)N1CCC(CN2CCC3(CC2)CN(C(=O)c2snnc2C)Cc2ccccc23)CC1` [compound 143], at M1 muscarinic receptor, the Emax was 25 to 100% and the “M1 Activity” value is recorded as “+++ (activity was measured to be less than 1.0 μM)”. Besides, at M4 muscarinic receptor, the maximal effect (Emax) was 25 to 100% and the “M4 Activity” value was “+++ (activity was measured to be less than 1.0 μM)”.

Consider `CC(=O)c1ccc(CN2CCC3(CC2)CN(C(C)=O)Cc2ccccc23)cc1` [compound 144], for which, on M1 muscarinic receptor, the Emax fell in the range of 25 to 100% and the “M1 Activity” value was “+ (activity was measured to be greater than 5.0 μM)”. Besides, on M4 muscarinic receptor, the Emax is less than 25% and the “M4 Activity” value was “+ (activity was measured to be greater than 5.0 μM)”.

Consider `CCOC(=O)N1CCC(CN2CCC3(CC2)OC(=O)c2ccc(C)cc23)CC1` [compound 145], for which, on M1 muscarinic receptor, the Emax lay within 25 to 100% and the “M1 Activity” value is “+++ (activity was measured to be less than 1.0 μM)”. Moreover, on M4 muscarinic receptor, the Emax was 25 to 100% and the “M4 Activity” value is “+++ (activity was measured to be less than 1.0 μM)”.

In the case of `CCOC(=O)N1C2CCC1CC(N1CCC3(CC1)CN(C(=O)c1cccs1)Cc1ccccc13)C2` (centres unmarked) [compound 146], on M1 muscarinic receptor, the Emax was in the range of 25 to 100% and the “M1 Activity” value is listed as “+++ (activity was measured to be less than 1.0 μM)”. In addition, on M4 muscarinic receptor, the Emax is 25 to 100% and the “M4 Activity” value is given as “+++ (activity was measured to be less than 1.0 μM)”.

Take `CCOC(=O)N1CCC(CN2CCC3(CC2)CN(C(=O)c2ccccc2)Cc2ccccc23)CC1` [compound 147, Ethyl 4-((2-benzoyl-2,3-dihydro-1H-spiro[isoquinoline-4,4′-piperidine]-1′-yl)methyl)piperidine-1-carboxylate hydrochloride]: at M1 muscarinic receptor, the Emax fell in the range of 25 to 100% and the “M1 Activity” value was “+++ (activity was measured to be less than 1.0 μM)”. In addition, at M4 muscarinic receptor, the Emax lay in the range of 25 to 100% and the “M4 Activity” value is “+++ (activity was measured to be less than 1.0 μM)”.

Regarding `CCCCOC(=O)N1Cc2ccccc2C2(CCN(C3CC4CCC(C3)N4C(=O)OCC)CC2)C1` (centres unmarked) [compound 148], on M1 muscarinic receptor, the Emax lay within 25 to 100% and the “M1 Activity” value is “+++ (activity was measured to be less than 1.0 μM)”. Also, on M4 muscarinic receptor, the Emax lay within 25 to 100% and the “M4 Activity” value is recorded as “+++ (activity was measured to be less than 1.0 μM)”.

`CCOC(=O)N1C2CCC1CC(N1CCC3(CC1)CN(C(=O)c1cc(C)oc1C)Cc1ccccc13)C2` (centres unmarked) [compound 149]: at M1 muscarinic receptor, the Emax was less than 25% and the “M1 Activity” value is recorded as “+ (activity was measured to be greater than 5.0 μM)”. For the same compound, on M4 muscarinic receptor, the Emax was in the range of 25 to 100% and the “M4 Activity” value is reported as “+++ (activity was measured to be less than 1.0 μM)”.

In the case of `COc1ccccc1CN1CCC2(CC1)CN(C(C)=O)Cc1ccccc12` [compound 150], at M1 muscarinic receptor, the Emax is less than 25% and the “M1 Activity” value is given as “+ (activity was measured to be greater than 5.0 μM)”. On M4 muscarinic receptor, the maximal response (Emax) was less than 25% and the “M4 Activity” value is on record as “+ (activity was measured to be greater than 5.0 μM)”.

Regarding `CCOC(=O)N1CCC(N2CCC3(CC2)CN(C(=O)c2ccccn2)Cc2ccccc23)CC1` [compound 151], at M1 muscarinic receptor, the Emax is 25 to 100% and the “M1 Activity” value is “+++ (activity was measured to be less than 1.0 μM)”. In addition, at M4 muscarinic receptor, the Emax is 25 to 100% and the “M4 Activity” value is on record as “+++ (activity was measured to be less than 1.0 μM)”.

On to `CC(=O)N1Cc2ccccc2C2(CCN(Cc3ccccc3Cl)CC2)C1` [compound 152], for which, at M1 muscarinic receptor, the Emax is less than 25% and the “M1 Activity” value was “+ (activity was measured to be greater than 5.0 μM)”. For the same compound, at M4 muscarinic receptor, the Emax is 25 to 100% and the “M4 Activity” value is given as “++ (activity was measured to be from 1.0 μM to 5.0 μM)”.

Broadly, the Emax is the maximal effect, on the per cent scale that the assay sets.
